Drawing on US20250361241A1, “HPK1 INHIBITOR AND MEDICAL USE THEREOF” (Betta Pharmaceuticals Co., Ltd., priority 2022, published 2025), this text covers IC50 for 41 compounds.

For one experiment, the target named is HPK1 (Homo sapiens (Human), UniProt Q92918). Nature of the experiment: HPK1 enzyme activity detection (1 mM ATP system), ADP-Glo with MBP substrate, Pharmacological Experiment 2. It counts as biochemical. The method, then: (§1) Pharmacological Experiment 2: […] The test compound was serially diluted using DMSO to 200 times the detection concentration. […] Centrifuge at 1000×g for 30 seconds and incubate at 25° C. for 15 minutes. • (5) Adding ATP and substrate: Add 2 μL of 2×ATP-MBP solution to the 384-well plate and centrifuge at 1000×g for 30 seconds. Seal the plate with a sealing film and incubate at 25° C. for 60 minutes. • (6) Add ADP-Glo reagent: Add 4 μL ADP-Glo reagent (Promega, V9103) to the 384-well plate, centrifuge at 1000×g for 30 seconds, and incubate at 25° C. for 60 minutes. • (7) Detection of luminescent signal; Add 8 μL of luminescent detection reagent (Promega, V9103) to a 384-well plate, centrifuge at 1000×g for 30 seconds, and incubate at 25° C. for 60 minutes. The chemiluminescent signal was read using a BMG instrument. • (8) Calculation of percentage inhibition rate: […] See Table 2 for the enzymatic IC 50 data of the example compounds on HPK1.
(ADP-Glo first removes unused ATP, then detects ADP through luciferase.)

For another experiment, the target named is GLK (Homo sapiens (Human), UniProt Q8IVH8). Briefly: GLK kinase assay (1 mM ATP system), ADP-Glo. It counts as biochemical. The method, then: as §1, with “Solution” for “Pharmacological Experiment 2:”, “Add” for “Adding”, “signal:” for “signal;”, “microplate reader.” for “instrument.”, “GLK kinase IC50” for “enzymatic IC 50”
Chain of GLK (Q8IVH8 whole entry, species assumed): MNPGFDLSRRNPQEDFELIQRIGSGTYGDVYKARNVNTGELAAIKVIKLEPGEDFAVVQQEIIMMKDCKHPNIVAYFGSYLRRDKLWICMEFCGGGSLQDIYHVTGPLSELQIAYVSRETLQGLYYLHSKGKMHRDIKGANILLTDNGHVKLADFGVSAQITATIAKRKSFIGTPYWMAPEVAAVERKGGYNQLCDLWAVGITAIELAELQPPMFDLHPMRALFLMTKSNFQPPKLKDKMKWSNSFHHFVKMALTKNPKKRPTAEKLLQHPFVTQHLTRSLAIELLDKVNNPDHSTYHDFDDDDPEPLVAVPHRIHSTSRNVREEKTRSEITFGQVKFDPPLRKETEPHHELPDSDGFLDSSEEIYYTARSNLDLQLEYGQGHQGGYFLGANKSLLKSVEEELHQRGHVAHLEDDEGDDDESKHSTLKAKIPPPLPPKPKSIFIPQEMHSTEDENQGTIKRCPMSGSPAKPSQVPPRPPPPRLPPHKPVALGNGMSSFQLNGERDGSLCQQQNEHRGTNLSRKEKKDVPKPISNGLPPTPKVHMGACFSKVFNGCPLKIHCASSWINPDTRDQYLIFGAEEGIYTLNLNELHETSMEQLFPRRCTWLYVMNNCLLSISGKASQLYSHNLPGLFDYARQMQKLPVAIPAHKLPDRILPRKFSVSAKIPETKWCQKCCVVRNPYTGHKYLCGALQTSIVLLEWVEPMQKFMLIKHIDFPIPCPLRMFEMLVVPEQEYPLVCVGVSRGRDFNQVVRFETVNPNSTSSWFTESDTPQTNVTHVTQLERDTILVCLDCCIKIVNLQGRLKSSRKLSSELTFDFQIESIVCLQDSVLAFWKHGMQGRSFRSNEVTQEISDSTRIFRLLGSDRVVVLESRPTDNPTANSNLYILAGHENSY

Chain of HPK1 (Q92918 whole entry, species assumed): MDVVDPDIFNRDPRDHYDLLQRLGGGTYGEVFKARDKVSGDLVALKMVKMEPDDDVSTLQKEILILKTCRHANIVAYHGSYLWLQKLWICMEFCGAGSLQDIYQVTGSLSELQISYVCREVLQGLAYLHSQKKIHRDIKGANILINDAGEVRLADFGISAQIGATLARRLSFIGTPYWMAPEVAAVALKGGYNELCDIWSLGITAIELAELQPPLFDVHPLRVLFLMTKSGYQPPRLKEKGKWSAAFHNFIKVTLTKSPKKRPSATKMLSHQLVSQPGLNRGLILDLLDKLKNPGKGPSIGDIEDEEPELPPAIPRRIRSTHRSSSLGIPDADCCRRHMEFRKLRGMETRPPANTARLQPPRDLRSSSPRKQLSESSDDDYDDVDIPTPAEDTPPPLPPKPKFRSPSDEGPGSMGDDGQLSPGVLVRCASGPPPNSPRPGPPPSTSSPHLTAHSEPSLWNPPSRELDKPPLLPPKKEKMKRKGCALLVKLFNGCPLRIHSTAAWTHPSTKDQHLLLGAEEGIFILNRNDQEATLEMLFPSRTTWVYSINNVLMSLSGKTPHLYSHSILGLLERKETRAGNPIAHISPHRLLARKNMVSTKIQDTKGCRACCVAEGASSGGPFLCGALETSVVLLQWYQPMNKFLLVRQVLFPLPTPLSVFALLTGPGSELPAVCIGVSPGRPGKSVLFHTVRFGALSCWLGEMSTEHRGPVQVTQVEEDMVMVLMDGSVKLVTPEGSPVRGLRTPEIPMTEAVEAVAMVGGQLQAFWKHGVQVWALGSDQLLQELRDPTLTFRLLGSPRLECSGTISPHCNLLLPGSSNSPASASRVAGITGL

Regarding “4-(8-FLUORO-7-METHYLIMIDAZO[1,2-A]PYRIDIN-3-YL)-7-((2,3,5,6,7′,8′-HEXAHYDRO-6′H-SPIRO[PYRAN-4, 5′-[1,7]NAPHTHYRIDINE]-2′-YL)AMINO)ISOINDOL-1-ONE [Compound 149]”, on HPK1, the IC50 – broadly, the concentration that inhibits the measured activity by half – was 4.42 nM.

As for “7-((2,3,5,6,7′,8′-HEXAHYDRO-6′-H-PYRANO[4,5′-[1,7]NAPHTHYRIDINE]-2′-YL)AMINO)-4-(7-(TRIFLUOROMETHYL)IMIDAZO[1,2-A]PYRIDIN-3-YL)ISOINDOL-1-ONE [Compound 147]”, the concentration for half-maximal inhibition (IC50) at HPK1 amounted to 22 nM.

In the case of `CN(C)C1CCC2(CCOCC2)c2ccc(Nc3ccc(-c4cnc5cc(F)ccn45)c4c3C(=O)NC4)nc21` (stereo not drawn) [Compound 3], the IC50 is 2860 nM against GLK and 4.16 nM against HPK1.

Take `Cc1cc(Nc2ccc(-c3cnc4cc(F)ccn34)c3c2C(=O)NC3)nc2c1C1(CCOCC1)C[C@H]2N(C)C` [Compound 28, (R)-7-((7-(DIMETHYLAMINO)-4-METHYL-2′,3′,5′,6,6′,7-HEXAHYDROSPIRO[B]PYRIDIN-5,4′-PYRAN]-2-YL)AMINO)-4-(7-FLUOROIMIDAZO[1,2-A]PYRIDIN-3-YL)ISOINDOLIN-1-ONE]: half-maximal inhibition against HPK1 (IC50) was put at 1.27 nM.

For `Cc1cc(Nc2ccc(-c3cnn4cc(F)ccc34)c3c2C(=O)NC3)nc2c1C1(CCOCC1)C[C@H]2N(C)C` [Compound 29], the IC50 on GLK was found to be 9.77 nM; against HPK1 it was 1.98 nM.

On to `Cc1cc(Nc2cnc(-c3ccnc4c3ccn4C)c3c2C(=O)NC3)nc2c1C1(CCOCC1)CC2N(C)C` (stereo not drawn) [Compound 30], for which the IC50 at HPK1 stood at 4.22 nM.

`CN(C)C1CCC2(CCOCC2)c2ccc(Nc3ccc(-c4cnc5cc(Cl)ccn45)c4c3C(=O)NC4)nc21` (stereo not drawn) [Compound 31] registered an IC50 against HPK1 of 4.53 nM.

On to `CN(C)C1CCC2(CCOCC2)c2ccc(Nc3ccc(-c4cnn5cc(F)ccc45)c4c3C(=O)NC4)nc21` (stereo not drawn) [Compound 32], for which the IC50 against GLK is 596 nM; at HPK1, 4.52 nM.

For `CN(C)C1CCC2(CCOCC2)c2ccc(Nc3ccc(-c4cnn5ccccc45)c4c3C(=O)NC4)nc21` (stereo not drawn) [Compound 33], the IC50 at GLK came out at 631 nM; against HPK1, 4.76 nM.

`CN(C)C1CCC2(CCOCC2)c2ccc(Nc3ccc(-c4cnn5cccnc45)c4c3C(=O)NC4)nc21` (stereo not drawn) [Compound 45] had an IC50 against HPK1 of 3.08 nM.

Regarding `O=C1NCc2c(-c3cnc4cc(F)ccn34)ccc(Nc3ccc4c(n3)C(N3CCC(F)(F)C3)CC43CCOCC3)c21` (stereo not drawn) [Compound 72, 7-((7-(3,3-DIFLUOROPYRROLIDIN-1-YL)-2′,3′,5′6,6′,7-HEXAHYDROSPIRO[B]PYRIDINE-5,4′-PYRAN]-2-YL)AMINO)-4-(7-FLUOROIMIDAZOLE[1,2-A]PYRIDIN-3-YL)ISOINDOL-1-ONE], at HPK1, the midpoint of inhibition, the IC50, lay at 143 nM. This IC50 lies about 46-fold higher than the previous one.

With `CC(=O)N1CCN(C2CC3(CCOCC3)c3ccc(Nc4ccc(-c5cnc6cc(F)ccn56)c5c4C(=O)NC5)nc32)CC1` (stereo not drawn) [Compound 92], the IC50 on HPK1 worked out at 75.2 nM.

Regarding `CC1(O)CCN(C2CC3(CCOCC3)c3ccc(Nc4ccc(-c5cnc6cc(F)ccn56)c5c4C(=O)NC5)nc32)CC1` (stereo not drawn) [Compound 95], the half-maximal inhibitory concentration (IC50) against HPK1 worked out at 6.36 nM.

Compound `CC1(C)CN(C2CC3(CCOCC3)c3ccc(Nc4ccc(-c5cnc6cc(F)ccn56)c5c4C(=O)NC5)nc32)CCO1` (stereo not drawn) [Compound 96] gave a concentration for half-maximal inhibition (IC50) at HPK1 of 72.5 nM.

As to `C[C@H]1CN(C2CC3(CCOCC3)c3ccc(Nc4ccc(-c5cnc6cc(F)ccn56)c5c4C(=O)NC5)nc32)CCO1` (stereo partly drawn) [Compound 97], the IC50 at HPK1 turned out to be 7.5 nM.

The compound `O=C1NCc2c(-c3cnc4cc(F)ccn34)ccc(Nc3ccc4c(n3)C(N3CCNCC3)CC43CCOCC3)c21` (stereo not drawn) [Compound 99] gave an IC50 at HPK1 of 171 nM.

`CN1Cc2nc(Nc3ccc(-c4cnc5cc(F)ccn45)c4c3C(=O)NC4)ccc2C2(CCOCC2)C1` [Compound 100, 4-(7-FLUOROIMIDAZO[1,2-A]PYRIDIN-3-YL)-7-((7′-(METHYL-D3)-2,3,5,6,7′,8′-HEXAHYDRO-6′H-SPIRO[PYRAN-4,5′-[1,7]NAPHTHYRIDINE]-2′-YL)AMINO)ISOINDOL-1-ONE] yielded a half-maximal inhibitory concentration (IC50) against HPK1 of 3.1 nM. This IC50 lies about 55-fold lower than the previous one.

Consider `O=C1NCc2c(-c3cnc4cc(F)ccn34)ccc(Nc3ccc4c(n3)C(N3CCOC5(CC5)C3)CC43CCOCC3)c21` (stereo not drawn) [Compound 111], for which, at HPK1, it took 30.2 nM to reach half-maximal inhibition (IC50).

As for `C[C@@H]1CN(C2CC3(CCOCC3)c3ccc(Nc4ccc(-c5cnc6cc(F)ccn56)c5c4C(=O)NC5)nc32)C[C@@H](C)O1` (stereo partly drawn) [Compound 112], half-maximal inhibition on HPK1 (IC50) was put at 48.7 nM.

Compound `C[C@@H]1CN(C2CC3(CCOCC3)c3ccc(Nc4ccc(-c5cnc6cc(F)ccn56)c5c4C(=O)NC5)nc32)C[C@H](C)O1` (stereo partly drawn) [Compound 113] returned a concentration for half-maximal inhibition (IC50) against HPK1 of 6.21 nM.

For `CN(CC(F)F)C1CC2(CCOCC2)c2ccc(Nc3ccc(-c4cnc5cc(F)ccn45)c4c3C(=O)NC4)nc21` (stereo not drawn) [Compound 114], at HPK1, the half-maximal inhibitory concentration (IC50) was determined as 92.5 nM.

As for `O=C1NCc2c(-c3cnc4cc(F)ccn34)ccc(Nc3ccc4c(n3)C(N3CC5CCC(C3)O5)CC43CCOCC3)c21` (stereo not drawn) [Compound 116], the midpoint of inhibition against HPK1, the IC50, lay at 79.8 nM.

`O=C1NCc2c(-c3cnc4cc(F)ccn34)ccc(Nc3ccc4c(n3)C(NCC(F)(F)F)CC43CCOCC3)c21` (stereo not drawn) [Compound 118] displayed an IC50 on HPK1 of 71.1 nM.

Take `CC(C)CNC1CC2(CCOCC2)c2ccc(Nc3ccc(-c4cnc5cc(F)ccn45)c4c3C(=O)NC4)nc21` (stereo not drawn) [Compound 141]: on HPK1, it took 3.07 nM to reach half-maximal inhibition (IC50).

In turn, `CC(C)NC1CC2(CCOCC2)c2ccc(Nc3ccc(-c4cnc5cc(Cl)ccn45)c4c3C(=O)NC4)nc21` (stereo not drawn) [Compound 142] gave an IC50 against HPK1 of 4.52 nM.

In the case of `O=C1NCc2c(-c3cnc4cc(F)ccn34)ccc(Nc3ccc4c(n3)C(N3C[C@H]5C[C@@H]3CO5)CC43CCOCC3)c21` (stereo partly drawn) [Compound 143], the concentration for half-maximal inhibition (IC50) on HPK1 came to 3.51 nM.

Regarding `CC(=O)N1Cc2nc(Nc3ccc(-c4cnc5cc(F)ccn45)c4c3C(=O)NC4)ccc2C2(CCCCC2)C1` [Compound 145], the IC50 on HPK1 was found to be 38.1 nM. Against the preceding compound, the IC50 is about 11-fold higher.

In turn, `COc1ccn2c(-c3ccc(Nc4ccc5c(n4)CCCC54CCOCC4)c4c3CNC4=O)cnc2c1` [Compound 148] had a concentration for half-maximal inhibition (IC50) at HPK1 of 21.8 nM.

`O=C1NCc2c(-c3cnc4cc(F)c(Cl)cn34)ccc(Nc3ccc4c(n3)CCCC43CCOCC3)c21` [Compound 150] showed a concentration for half-maximal inhibition (IC50) against HPK1 of 30.4 nM.

On HPK1, `O=C1N=Cc2c(-c3cnc4cc(Cl)ccn34)ccc(Nc3ccc4c(n3)CNCC43CC3)c21` [Compound 152, 4-(7-CHLOROIMIDAZO[1,2-A]PYRIDIN-3-YL)-7-((7′,8′-DIHYDRO-6′H-SPIRO[CYCLOPROPANE-1,5′-[1,7]NAPHTHYRIDINE]-2′-YL)AMINO)ISOINDOL-1-ONE] yielded a half-maximal inhibitory concentration (IC50) of 14.4 nM. This IC50 is about 2.1-fold lower than that of the compound before.

For the compound `C#CCN1Cc2nc(Nc3ccc(-c4cnc5cc(F)ccn45)c4c3C(=O)NC4)ccc2C2(CCOCC2)C1` [Compound 155], the concentration for half-maximal inhibition (IC50) against HPK1 came to 243 nM.

As to `C#CCN1Cc2nc(Nc3ccc(-c4cnc5cc(F)ccn45)c4c3C(=O)NC4)ccc2C2(CCOCC2)C1` [Compound 156], the IC50 on HPK1 stood at 38.7 nM.

`CN(C)C1CC2(CCOCC2)c2ccc(Nc3ccc(-c4cnc5c(F)cccn45)c4c3C(=O)NC4)nc21` (stereo not drawn) [Compound 159]: the IC50 at HPK1 turned out to be 5.41 nM.

`CN(C)C1CC2(CCOCC2)c2ccc(Nc3ccc(-c4cnc5ccc(F)cn45)c4c3C(=O)NC4)nc21` (stereo not drawn) [Compound 162] came in with an IC50 at HPK1 of 18.6 nM. Compared with the last compound, the IC50 is about 3.4-fold higher.

`CC(C)c1ccn2c(-c3ccc(Nc4ccc5c(n4)C(N(C)C)CC54CCOCC4)c4c3CNC4=O)cnc2c1` (stereo not drawn) [Compound 163, 7-((7-(DIMETHYLAMINO)-2′,3′,5′,6,6′,7-HEXAHYDROSPIRO[CYCLOPENTANE[B]PYRIDINE-5,4′-PYRAN]-2-YL)AMINO)-4-(7-ISOPROPYLIMIDAZO[1,2-A]PYRIDIN-3-YL)ISOINDOL-1-ONE] came in with a half-inhibitory concentration (IC50) on HPK1 of 25.3 nM.

In turn, `CN(C)C1CC2(CCOCC2)c2ccc(Nc3ccc(-c4cnc5n4CCCC5)c4c3C(=O)NC4)nc21` (stereo not drawn) [Compound 166, 7-((7-(DIMETHYLAMINO)-2′,3′,5′,6,6′,7-HEXAHYDROSPIRO[CYCLOPENTANE[B]PYRIDINE-5,4′-PYRAN]-2-YL)AMINO)-4-(5,6,7,8-TETRAHYDROIMIDAZO[1,2-A]PYRIDIN-3-YL)ISOINDOL-1-ONE] gave a half-inhibitory concentration (IC50) against HPK1 of 25.7 nM.

Compound `COc1ccn2c(-c3ccc(Nc4ccc5c(n4)C(N(C)C)CC54CCOCC4)c4c3CNC4=O)cnc2c1` (stereo not drawn) [Compound 170] came in with a 50% inhibitory concentration (IC50) against HPK1 of 6.88 nM.

In turn, `CN(C)C1CC2(CCOCC2)c2ccc(Nc3ccc(-c4cnc5cc(O)ccn45)c4c3C(=O)NC4)nc21` (stereo not drawn) [Compound 171] returned a 50% inhibitory concentration (IC50) against HPK1 of 35 nM. This IC50 lies about 5.1-fold higher than the previous one.

`CN(C)C1CC2(CCOCC2)c2ccc(Nc3ccc(-c4cnc5cc(OC(F)(F)F)ccn45)c4c3C(=O)NC4)nc21` (stereo not drawn) [Compound 175] showed a half-maximal inhibitory concentration (IC50) against HPK1 of 16.8 nM.

On to `O=C1NCc2c(-c3cnc4cc(OC(F)F)ccn34)ccc(Nc3ccc4c(n3)C(N3CCC(F)CC3)CC43CCOCC3)c21` (stereo not drawn) [Compound 176], for which it took 12.1 nM to reach half-maximal inhibition at HPK1 (IC50).

In the case of `O=C1NCc2c(-c3cnc4cc(OC(F)F)ccn34)ccc(Nc3ccc4c(n3)C(N3CCOCC3)CC43CCOCC3)c21` (stereo not drawn) [Compound 177, 4-(7-(DIFLUOROMETHOXY)IMIDAZO[1,2-A]PYRIDIN-3-YL)-7-((7-MORPHOLINE-2′,3′,5′,6,6′,7-HEXAHVDROSPIRO[B]PYRIDIN-54′-PYRAN]-2-YL)AMINO)ISOINDOL-1-ONE], the midpoint of inhibition against HPK1, the IC50, lay at 102 nM.
